# In patent US12428406B2 (PMV Pharmaceuticals, Inc., priority 2019, dated 2025):
# Target: T1, p53 Y220C (Homo sapiens, UniProt P04637, Y220C)
# T1 construct: The recombinant protein was a truncation mutant containing only amino acids 94-312 of p53; made in house; host or cells: E. coli
# Assay: In vitro DNA binding activity assay (HTRF / TR-FRET): stabilization of p53 Y220C and increase of its DNA binding activity
# Assay type: biochemical
# Conditions: recombinant His-tagged p53 Y220C DNA binding domain (aa 94-312), biotin-labeled consensus DNA, incubated at 27° C. or 29° C. for 60 min
# Outline: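 Compound effect on DNA binding of recombinant His-p53 Y220C (E. coli) to biotin-labeled consensus DNA, expressed as SC150, the concentration giving 50% increase versus untreated. Serial 3-fold DMSO dilutions of 4.5 mM stocks; room-temperature steps of 15 then 20 min.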
# T1 sequence (P04637 94-312, change not shown): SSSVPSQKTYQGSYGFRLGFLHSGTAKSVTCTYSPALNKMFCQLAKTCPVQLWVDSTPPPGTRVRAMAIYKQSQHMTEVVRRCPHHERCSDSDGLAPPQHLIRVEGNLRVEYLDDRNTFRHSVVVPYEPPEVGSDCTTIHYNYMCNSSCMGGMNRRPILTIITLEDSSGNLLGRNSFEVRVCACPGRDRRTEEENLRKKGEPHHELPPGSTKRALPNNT
row,SC150 (concentration of the compound required to increase the DNA binding activity by 50%),Compound
1,+ (+ = 0 μM ≤ SC150 < 0.05 μM),"COc1cc(C(=O)NC(C)CO)ccc1NCC#Cc1cc2c(N[C@@H]3CCN(C)C[C@@H]3F)cccc2n1CC(F)(F)F (stereo partly drawn) [Compound 1056A, 4-{[3-(4-{[(3S,4R)-3-fluoro-1-methylpiperidin-4-yl]amino}-1-(2,2,2-trifluoroethyl)-1H-indol-2-yl)prop-2-yn-1-yl]amino}-N-(1-hydroxypropan-2-yl)-3-methoxybenzamide]"
2,+ (+ = 0 μM ≤ SC150 < 0.05 μM),"CNC(=O)c1ccc(NCC#Cc2cc3c(N[C@H]4CCN(C)C[C@H]4F)cccc3n2CC(F)(F)F)c(OC)c1 (racemic) [Compound 783A, 4-[3-[4-[[(3R,4S)-3-fluoro-1-methyl-4-piperidyl]amino]-1-(2,2,2-trifluoroethyl)indol-2-yl]prop-2-ynylamino]-3-methoxy-N-methyl-benzamide]"
3,+ (+ = 0 μM ≤ SC150 < 0.05 μM),"COc1cc(C(N)=O)ccc1NCC#Cc1cc2c(N[C@H]3CCNC[C@H]3F)cccc2n1CC(F)(F)F [Compound 868A, 4-{[3-(4-{[(3R,4S)-3-fluoropiperidin-4-yl]amino}-1-(2,2,2-trifluoroethyl)-1H-indol-2-yl)prop-2-yn-1-yl]amino}-3-methoxybenzamide]"
4,+ (+ = 0 μM ≤ SC150 < 0.05 μM),"CS(=O)(=O)c1ccc(NCC#Cc2cc3c(N[C@H]4CC[C@@H](N5CC6(COC6)C5)CC4)cccc3n2CC(F)(F)F)c(O)c1 [Compound 215A, 5-methanesulfonyl-2-{[3-(4-{[(1S,4S)-4-{2-oxa-6-azaspiro [3.3]heptan-6-yl}cyclo-hexyl]amino}-1-(2,2,2-trifluoroethyl)-1H-indol-2-yl)prop-2-yn-1-yl]amino}phenol]"
5,+ (+ = 0 μM ≤ SC150 < 0.05 μM),"CS(=O)(=O)c1ccc(NCC#Cc2cc3c(N[C@H]4CC[C@H](N5CC6(COC6)C5)CC4)cccc3n2CC(F)(F)F)c(OCC(F)(F)F)c1 [Compound 231A, 2-(3-{[4-methane-sulfonyl-2-(2,2,2-trifluoro-ethoxy)phenyl]amino}prop-1-yn-1-yl)-N-[(1R,4R)-4-{2-oxa-6-azaspiro[3.3]heptan-6-yl}cyclohexyl]-1-(2,2,2-trifluoroethyl)-1H-indol-4-amine]"
6,++ (++ = 0.05 μM ≤ SC150 < 0.1 μM),"COCC(O)CN1CCC(Nc2cccc3c2cc(C#CCNc2ccc(S(C)(=O)=O)cc2OC)n3CCC(F)(F)F)CC1 (centres unmarked) [Compound 711A, 1-{4-[(2-{3-[(4-methanesulfonyl-2-methoxyphenyl)amino]prop-1-yn-1-yl}-1-(3,3,3-trifluoropropyl)-1H-indol-4-yl)amino]piperidin-1-yl}-3-methoxypropan-2-ol]"
7,+ (+ = 0 μM ≤ SC150 < 0.05 μM),"COc1cc(S(N)(=O)=O)ccc1NCC#Cc1cc2c(NC(CCO)CCO)cccc2n1CC(F)(F)F [Compound 4A, 4-[(3-{4-[(1,5-dihydroxypentan-3-yl)amino]-1-(2,2,2-trifluoroethyl)-1H-indol-2-yl}prop-2-yn-1-yl)amino]-3-methoxybenzene-1-sulfonamide]"
8,+ (+ = 0 μM ≤ SC150 < 0.05 μM),"COC(=O)c1ccc(NCC#Cc2cc3c(N[C@H]4CCN(C)C[C@@H]4F)cccc3n2CC(F)(F)F)c(OC)c1 (racemic) [Compound 777A, rac-Methyl 4-{[3-(4-{[(3R,4R)-3-fluoro-1-methylpiperidin-4-yl]amino}-1-(2,2,2-trifluoroethyl)-1H-indol-2-yl)prop-2-yn-1-yl]amino}-3-methoxybenzoate]"
9,+ (+ = 0 μM ≤ SC150 < 0.05 μM),"COc1cc(C(=O)OCC(C)O)ccc1NCC#Cc1cc2c(N[C@H]3CCN(C)C[C@H]3F)cccc2n1CC(F)(F)F (mixture of isomers) [Compound 806A, rac-2-hydroxypropyl 4-{[3-(4-{[(3R,4S)-3-fluoro-1-methylpiperidin-4-yl]amino}-1-(2,2,2-trifluoroethyl)-1H-indol-2-yl)prop-2-yn-1-yl]amino}-3-methoxybenzoate]"
10,+ (+ = 0 μM ≤ SC150 < 0.05 μM),"COCC(O)CN1CCC(Nc2cccc3c2cc(C#CCNc2ccc(S(C)(=O)=O)cc2Cl)n3CC(F)(F)F)CC1 (centres unmarked) [Compound 713A, 1-{4-[(2-{3-[(2-chloro-4-methanesulfonylphenyl)amino]prop-1-yn-1-yl}-1-(2,2,2-trifluoroethyl)-1H-indol-4-yl)amino]piperidin-1-yl}-3-methoxypropan-2-ol]"
11,+ (+ = 0 μM ≤ SC150 < 0.05 μM),COc1cc(S(C)(=O)=O)ccc1NCC#Cc1cc2c(NC3CCN(C(=O)CC#N)CC3)cccc2n1CC(F)(F)F [Compound 746A]
12,+ (+ = 0 μM ≤ SC150 < 0.05 μM),"CNC(=O)c1ccc(NCC#Cc2cc3c(NC4CCN(CCOC)CC4)cccc3n2CC(F)(F)F)c(OC)c1 [Compound 616A, 3-methoxy-4-{[3-(4-{[1-(2-methoxyethyl)piperidin-4-yl]amino}-1-(2,2,2-trifluoroethyl)-1H-indol-2-yl)prop-2-yn-1-yl]amino}-N-methylbenzamide]"
13,+ (+ = 0 μM ≤ SC150 < 0.05 μM),COC[C@H](O)CN1CC[C@H](Nc2cccc3c2cc(C#CCNc2ccc(C(=O)OC)cc2OC)n3CC(F)(F)F)[C@H](F)C1 [Compound 879A]
14,+ (+ = 0 μM ≤ SC150 < 0.05 μM),"COc1cc(S(C)(=O)=O)ccc1NCC#Cc1cc2c(NC3CC[N+]4(CC3)COCC(O)C4)cccc2n1CC(F)(F)F (centres unmarked) [Compound 674A, 4-hydroxy-9-[(2-{3-[(4-methanesulfonyl-2-methoxyphenyl)amino]prop-1-yn-1-yl}-1-(2,2,2-trifluoroethyl)-1H-indol-4-yl)amino]-2-oxa-6λ^5-azaspiro[5.5]undecan-6-ylium]"
15,+ (+ = 0 μM ≤ SC150 < 0.05 μM),"CS(=O)(=O)c1ccc(NCC#Cc2cc3c(NC4CCNCC4)cccc3n2CC(F)(F)F)c(OCC#N)c1 [Compound 461A, 2-{5-methanesulfonyl-2-[(3-{4-[(piperidin-4-yl)amino]-1-(2,2,2-trifluoroethyl)-1H-indol-2-yl}prop-2-yn-1-yl)amino]phenoxy}acetonitrile]"
16,+ (+ = 0 μM ≤ SC150 < 0.05 μM),"COc1cc(S(C)(=O)=O)ccc1NCC#Cc1cc2c(N[C@H]3CC[C@H](N4CC5(CCC5)C4)CC3)cccc2n1CC(F)(F)F [Compound 194A, 2-{3-[(4-methane-sulfonyl-2-methoxy-phenyl)amino]prop-1-yn-1-yl}-N-[(1R,4R)-4-{2-azaspiro[3.3]heptan-2-yl}cyclohexyl]-1-(2,2,2-trifluoroethyl)-1H-indol-4-amine]"
17,+ (+ = 0 μM ≤ SC150 < 0.05 μM),"COc1cc(S(C)(=O)=O)ccc1NCC#Cc1cc2c(N[C@H]3CC[C@H](N4CC(S(C)(=O)=O)C4)CC3)cccc2n1CC(F)(F)F [Compound 188A, 2-{3-[(4-methane-sulfonyl-2-methoxy-phenyl)amino]prop-1-yn-1-yl}-N-[(1R,4R)-4-(3-methanesulfonyl-azetidin-1-yl)cyclohexyl]-1-(2,2,2-trifluoroethyl)-1H-indol-4-amine]"
